Experimental data taken from patent publication US8853373B2, “Method and reagent for gene sequence analysis” (Hitachi, Ltd., priority 2009, dated 2014).

Tests used:
Format in all cases: biochemical
DNA Sequence S2 = assay: Sequence analysis by stepwise chemical reaction (pyrogram), PPDK system, Condition 4; conditions: DNA Sequence S2 (3 consecutive nucleotides)
Procedure: Therefore, a sequence having 3 consecutive nucleotides of T was analyzed for comparison. Analyzed DNA Sequence S2 and a primer P3 are described below.
Of note is that Sequence P3 represents a primer sequence. This primer can complementarily bind to the underlined portion of the above DNA Sequence S2. FIGS. 16 to 20 show the results of a sequence analysis. In addition, the reagent conditions were listed together in the following Table 3.
In this experiment, an enzyme system which converts PPi into ATP has employed an enzyme system in which PPi and AMP are converted into ATP by PPDK as described in the conventional technique (Patent Literature 4). The items of the figure are identical to those of FIG. 15. At the bottom of the respective figures, the injected nucleotide types are designated. At the top, the nucleotide types which have been incorporated into a complementary DNA sequence of analysis object are designated. The substrate was injected in the order of “bases A, T, C, and G”, and 7 cycles were analyzed. As indicated in the target sequence, in this analysis, two regions (Cycle 4 and Cycle 7) having 3 consecutive nucleotides of A incorporated are present. Because of this, a difference in the ability of continuous incorporation of a nucleic acid substrate that is used as a nucleotide A can be assessed. Hereinafter, the details are described.
First, three kinds of the substrates (A3d, dATPαS, and C^7dATP) having the final concentration of 2 μM were used. The results of a sequence analysis will be described (FIGS. 16 to 20). […] At the time of dispensing A (surrounded by the circle ◯) which represented the injected nucleotide type, A3d was used. […] Accordingly, as the signal corresponding to A at the first cycle indicated, background luminescence was observed. Due to this phenomenon, the luminescence signal corresponding to nucleotide A constantly included the increased background luminescence. The symbol • in the figure denotes elongation luminescence corresponding to a nucleotide sequence of a sample. In contrast, the major luminescence without corresponding to the nucleotide sequence is represented by the symbol ∇. […] At the time of dispensing A (surrounded by the circle ◯) which represented the injected nucleotide type, dATPαS was used. The resulting pyrogram and the nucleotide sequence of a sample were compared. The symbol • in the figure denotes elongation luminescence corresponding to a nucleotide sequence of a sample. In contrast, the major luminescence without corresponding to the nucleotide sequence is represented by the symbol ∇. […] At the time of dispensing A (surrounded by the circle ◯) which represented the injected nucleotide type, C^7dATP was used. […] Accordingly, as the signal corresponding to A at the first cycle indicated, big background luminescence was observed. Due to this phenomenon, the luminescence signal corresponding to nucleotide A constantly included the increased background luminescence. The symbol x in the figure denotes just a background luminescence signal. The symbol • denotes elongation luminescence corresponding to a nucleotide sequence of a sample. However, the symbol (•) denotes inclusion of both elongation-derived luminescence and background luminescence. In contrast, the major luminescence without corresponding to the nucleotide sequence is represented by the symbol ∇.

[1] = test system: nucleotides G, C, and A (Sequence GA, Sequence CG, Sequence AG); assay: Exclusivity of the other nucleotides (G, C, and A), elongation luminescence; conditions: CG, AG, luminescence normalized to dCTP, dGTP, dTTP as 1
Procedure: (§1) Incorporation into nucleic acid was evaluated as follows. First, one of the above sequences was used as a target. Next, the primer was made to complementarily bind to the target. Then, an elongation experiment was carried out using the respective nucleic acid substrates for that sample. The synthesized nucleic acid substrate requires an affinity (complementary characteristics) with nucleotide T, and exclusivity of the other nucleotides (G, C, and A). The affinity with nucleotide T was evaluated using the Sequence TG and the primer. The exclusivity of the other nucleotides (G, C, and A) was evaluated using the respective Sequence GA, Sequence CG, and Sequence AG, and the primer. In addition, Sequence 5T was used for the evaluation of an ability of continuous incorporation into nucleotide T.
(§2) A sequencing method using a stepwise chemical reaction is described below. First, 35 μL of ultrapure water, 5 μL of oligo DNA (10 μM) of analysis object (target), and 5 μL of a primer (20 μM) were mixed with 5 μL of a hybridization buffer (10 mM Tris-Acetate, 20 mM Mg-Acetate, pH 7.75) (a sample solution: the final volume was 50 μL). Then, the sample solution was heated at 94° C. for 20 seconds, and reacted at a Tm temperature of the primer for 2 minutes. After that, 0.5 μL, (target: […], primer: […]) of this sample solution, 20 of a luminescence reagent which is designated in Condition 2 of Table 1, and 0.2 μL of a polymerase enzyme (the final concentration: 0.05 U/4) were mixed to prepare a reaction reagent (the final volume was 20.7 μL). To this reaction reagent was added 0.4 μL of 100 μM nucleic acid substrate (the final concentration 2 μM). When nucleic acid elongation occurs, bioluminescence derived from pyrophosphate of the elongation reaction product can be observed. The reaction has a luminescence peak a few seconds after the reaction initiation. […] This luminescence peak value is virtually proportional to the amount of generated pyrophosphate. Measurement of the peak value enables a degree of nucleic acid elongation to be estimated.
Next, with regard to the respective synthetic substrates, the exclusivity of the other nucleotides (G, C, and A) was assessed using each of Sequence GA, Sequence CG, and Sequence AG and the primer. […] In addition, a background luminescence component of the respective substrates was compensated by taking its difference into account in a manner similar to that of the preceding figures.

[2] = test system: 5 consecutive nucleotides of T (Sequence 5T); assay: Ability of incorporation into consecutive nucleotides of T (Sequence 5T), three consecutive injections; conditions: for Continuous incorporation into 5 consecutive T (luminescence derived from incomplete elongation): three injections
Procedure: as §1, §2
Next, by using Sequence 5T, the ability of incorporation of the respective synthetic substrates into consecutive nucleotides of T was evaluated by the following procedure. The reaction reagent was prepared by using Sequence 5T as a target oligo in the same manner as in the case of evaluation of elongation of one nucleotide as described before. In this case, a target oligo 111 and a primer 112 form a complementary strand binding as depicted in FIG. 11(1). Due to the above, when dATP is dispensed into this reaction reagent as a substrate, five molecules of the substrate are consecutively elongated per target molecule as a primer having the substrate at the 3′ end 113, thereby releasing five molecules of pyrophosphate. If the elongation for all the five nucleotides is not completed, a portion of the nucleotide T remains in a single-stranded state. Because of this, when substrate dATP is dispensed again, the portion is elongated only in the case where a portion of incomplete elongation remains. Therefore, the release of pyrophosphate can be detected as luminescence. […] In addition, substrate dCTP, which is complementary to nucleotide G 114, was subsequently dispensed twice to detect luminescence. […]

[3] = final concentration 2 μM, 7 cycles

| Structure (SMILES) | Sequence analysis result as substitute for dATP (DNA Sequence S2; [3]) | Exclusivity of the other nucleotides (G, C, and A) [1] | Rate of Incomplete Elongation after the First Injection (%) ([2]; 5 consecutive nucleotides, final concentration 4 μM, E1 = luminescence of 2nd and 3rd injections / total of 1st to 3rd) | Rate of Incomplete Elongation after the Second Injection (%) ([2]; 5 consecutive nucleotides, final concentration 4 μM, E2 = luminescence of 3rd injection / total of 1st to 3rd) | Continuous incorporation into 5 consecutive T (luminescence derived from incomplete elongation) ([2]; final concentration 2 μM, then dCTP) | Continuous incorporation into 5 consecutive T (luminescence derived from incomplete elongation) ([2]; final concentration 4 μM (substrate amount doubled)) | Sequence analysis result as substitute for dATP (DNA Sequence S2; final concentration 4 μM) |
| --- | --- | --- | --- | --- | --- | --- | --- |
| Nc1ncnc2c1c(/C=C/C(=O)NCCc1ccncc1)cn2[C@H]1CC(O)[C@@H](COP(=O)(O)OP(=O)(O)OP(=O)(O)O)O1 (some centres unmarked) [A3d] | up to the nucleotide G at Cycle 7, a sequence analysis was found to be able to be definitely carried out | excellent exclusivity |  |  |  |  |  |
| Nc1ncnc2c1ncn2[C@H]1C[C@H](O)[C@@H](COP(O)(=S)OP(=O)(O)OP(=O)(O)O)O1 (some centres unmarked) [dATPαS] | incomplete elongation was able to be presumed to occur |  | 36.8 ± 7.8% | 13.6 ± 5.1% | luminescence derived from incomplete elongation was detected even at the third injection | luminescence derived from incomplete elongation was detected at the third injection | the incomplete elongation is not completely resolved |
